For 77 compounds, IC50 results are on record in the Kinase Knowledgebase extract (Sharma et al. 2016).

The assay deals with PIK3CA (human) (UniProt P42336). The assay is described as follows: Inhibition of PIK3CA Kinase Activity.
Sequence of PIK3CA (human) (P42336 whole entry, looked up): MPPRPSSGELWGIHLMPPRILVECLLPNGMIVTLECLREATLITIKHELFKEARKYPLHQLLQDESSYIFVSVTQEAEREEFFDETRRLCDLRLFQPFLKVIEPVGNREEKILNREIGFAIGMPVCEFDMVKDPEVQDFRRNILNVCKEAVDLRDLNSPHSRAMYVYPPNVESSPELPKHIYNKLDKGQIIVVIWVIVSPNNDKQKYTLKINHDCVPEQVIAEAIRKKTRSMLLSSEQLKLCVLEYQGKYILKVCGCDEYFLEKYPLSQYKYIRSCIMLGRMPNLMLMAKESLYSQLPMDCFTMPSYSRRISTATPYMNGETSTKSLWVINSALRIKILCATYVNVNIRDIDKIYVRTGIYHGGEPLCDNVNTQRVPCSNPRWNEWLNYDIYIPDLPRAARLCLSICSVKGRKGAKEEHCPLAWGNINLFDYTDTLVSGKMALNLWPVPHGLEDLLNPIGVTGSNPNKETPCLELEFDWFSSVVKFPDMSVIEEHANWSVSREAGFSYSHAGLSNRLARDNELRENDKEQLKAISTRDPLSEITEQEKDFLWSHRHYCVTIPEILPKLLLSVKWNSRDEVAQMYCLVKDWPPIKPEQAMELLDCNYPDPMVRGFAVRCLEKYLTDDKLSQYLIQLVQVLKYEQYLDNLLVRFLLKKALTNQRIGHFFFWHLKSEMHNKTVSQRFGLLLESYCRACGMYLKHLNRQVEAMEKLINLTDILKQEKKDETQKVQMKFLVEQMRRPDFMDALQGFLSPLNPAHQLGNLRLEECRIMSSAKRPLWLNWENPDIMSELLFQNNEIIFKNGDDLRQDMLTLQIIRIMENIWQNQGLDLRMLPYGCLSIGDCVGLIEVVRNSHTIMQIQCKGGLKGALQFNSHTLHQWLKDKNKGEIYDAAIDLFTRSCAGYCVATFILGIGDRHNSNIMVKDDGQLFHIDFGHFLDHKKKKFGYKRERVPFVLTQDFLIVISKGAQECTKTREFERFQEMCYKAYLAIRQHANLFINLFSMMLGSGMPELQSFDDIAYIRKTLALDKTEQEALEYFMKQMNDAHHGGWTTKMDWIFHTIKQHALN

On to `Cc1nc2ncc(-c3ccc4c(c3)CN(c3ncnc(Cl)c3C)CCO4)cc2[nH]1`, for which the IC50 (commonly the midpoint of a concentration-inhibition curve) was in the range of 50 to 250 nM.

On to `CCN(C)S(=O)(=O)c1cc(-c2ccc3c(c2)CN(c2ncnc4c2CC(C)(C)CC4)CCO3)cnc1N`, for which the IC50 lay in the range of 50 to 250 nM. For `CCNCc1nc2c(c(N3CCOc4ccc(-c5cnc6nc(C)[nH]c6c5)cc4C3)n1)CC(C)(C)CC2` the value was at most 10 nM. In turn, `CC1(C)CCc2ncnc(N3CCOc4ccc(-c5cnc(N)c(S(=O)(=O)NC[C@@H]6CCNC6)c5)cc4C3)c2C1` gave a half-inhibitory concentration (IC50) of 10 to 50 nM. Regarding `CCNc1nc2ccc(-c3ccc4c(c3)CN(c3nc(C)nc5cc(OC)c(OC)cc35)CCO4)cc2[nH]1`, the IC50 lay within 10 to 50 nM. Under `COc1c(OCC2CC2)ccc2c(N3CCOc4ccc(-c5ccc6nc(C)[nH]c6c5)cc4C3)ncnc12` stands 10 to 50 nM. The compound `Cc1nc2ncc(-c3ccc4c(c3)CN(c3nc(CNC(C)(C)C)nc5c3CC(C)(C)CC5)CCO4)cc2[nH]1` yielded a concentration for half-maximal inhibition (IC50) of 10 to 50 nM. For `COc1ccc2c(N3CCOc4ccc(-c5ccc6[nH]c(=O)[nH]c6c5)cc4C3)nc(C)nc2c1` the value was 250 to 1000 nM; for `Cc1ncnc(N2CCOc3ccc(-c4ccc5[nH]nc(N)c5c4)cc3C2)c1Cc1ccc(F)cc1`, 50 to 250 nM. For `Cc1nc2ccc(-c3ccc4c(c3)CN(c3ncnc5c(Cl)cc(Cl)cc35)CCO4)cc2[nH]1` the value was 250 to 1000 nM. Under `Cc1ncnc(N2CCOc3ccc(-c4cc5[nH]c(N)nc5cn4)cc3C2)c1Cc1ccc(F)cc1` stands 50 to 250 nM. The compound `CC1(C)CCc2ncnc(N3CCOc4ccc(-c5cnc(N)c(S(=O)(=O)NC[C@@H]6CCCN6)c5)cc4C3)c2C1` yielded an IC50 of 50 to 250 nM.

On to `Cc1nc2ncc(-c3ccc4c(c3)CN(c3ncnc5c3CCC(C)C5)CCO4)cc2[nH]1` (configuration not stated), for which the IC50 lay within 10 to 50 nM. Under `CNC(=O)Nc1ccc(-c2ccc3c(c2)CN(c2nc(C)nc4cc(OC)ccc24)CCO3)cc1` stands 50 to 250 nM; under `CNc1ncc(-c2ccc3c(c2)CN(c2ncnc4c2CC(C)(C)CC4)CCO3)cc1S(=O)(=O)NCCO`, 10 to 50 nM. For the compound `CN1C[C@@H]2C[C@H]1CN2S(=O)(=O)c1cc(-c2ccc3c(c2)CN(c2ncnc4c2CC(C)(C)CC4)CCO3)cnc1N`, the IC50 fell in the range of 50 to 250 nM. Under `CN1CC[C@@H](NS(=O)(=O)c2cc(-c3ccc4c(c3)CN(c3ncnc5c3CC(C)(C)CC5)CCO4)cnc2N)C1` stands 50 to 250 nM; under `c1cc(N2CCOc3ccc(-c4cnc5nc[nH]c5c4)cc3C2)ncn1`, 250 to 1000 nM. For `CCNc1nc2ncc(-c3ccc4c(c3)CN(c3ncnc(C)c3Cc3ccc(F)cc3)CCO4)cc2[nH]1` the value was at most 10 nM. `Cc1ccc2ncnc(N3CCOc4ccc(-c5ccc6nc(C)[nH]c6c5)cc4C3)c2c1` yielded an IC50 of 10 to 50 nM. As for `CC1(C)CCc2ncnc(N3CCOc4ccc(-c5cnc(N)c(S(=O)(=O)N6C[C@H]7C[C@@H]6CN7)c5)cc4C3)c2C1`, the IC50 lay within 50 to 250 nM. Regarding `Cc1nc2ccc(-c3ccc4c(c3)CN(c3ncnc(C)c3Cc3ccccc3C)CCO4)cc2[nH]1`, the IC50 fell in the range of 50 to 250 nM.

`CCNc1nc2ccc(-c3ccc4c(c3)CN(c3ccnc5cc(OC)ccc35)CCO4)cc2[nH]1` showed an IC50 of at most 10 nM. For `Cc1nc2ccc(-c3ccc4c(c3)CN(c3nc(CNC5CCC5)nc5c3CC(C)(C)CC5)CCO4)cc2[nH]1` the value was 10 to 50 nM; for `Cc1nc2cc(-c3ccc4c(c3)CN(c3nc(N)nc(C)c3Cc3ccc(F)cc3)CCO4)cnc2[nH]1`, at most 10 nM; for `COc1ccc(-c2ccc3c(c2)CN(c2nc(CN(C)C)nc(C)c2C(C)C)CCO3)cc1NS(C)(=O)=O`, 10 to 50 nM. The compound `COc1cc2ncnc(N3CCOc4ccc(-c5ccc6nc(C)[nH]c6c5)cc4C3)c2cc1I` showed an IC50 of 10 to 50 nM.

On to `CCc1c(C)nc(C)nc1N1CCOc2ccc(-c3cnc4nc(C)[nH]c4c3)cc2C1`, for which the IC50 lay in the range of 50 to 250 nM. For `CC1=Cc2ncnc(N3CCOc4ccc(-c5cnc(N)c(S(=O)(=O)NCC6CCN(C)CC6)c5)cc4C3)c2CC1(C)C` the value was 50 to 250 nM; for `Cc1nc(C)c(CC2CC2)c(N2CCOc3ccc(-c4cnc5nc(C)[nH]c5c4)cc3C2)n1`, 10 to 50 nM; for `COc1cc2nccc(N3CCOc4ccc(-c5cnc6nc(N)[nH]c6c5)cc4C3)c2cc1OC`, at most 10 nM.

As for `CC1(C)CCc2ncnc(N3CCOc4ccc(-c5cnc6nccnc6c5)cc4C3)c2C1`, the IC50 was in the range of 250 to 1000 nM. The compound `CC1(C)CCc2ncnc(N3CCOc4ccc(-c5cnc(N)c(S(=O)(=O)N6CCOCC6)c5)cc4C3)c2C1` showed an IC50 of 50 to 250 nM. For `Cc1nc2ncc(-c3ccc4c(c3)CN(c3ncnc5c3CCCC5(C)C)CCO4)cc2[nH]1` the value was 50 to 250 nM. `Cc1nc2ccc(-c3ccc4c(c3)CN(c3ccnc(C)c3Cc3cccc(F)c3)CCO4)cc2[nH]1` showed an IC50 of at most 10 nM. For `CC1(C)CCc2ncnc(N3CCOc4ccc(-c5cnc(N)c(S(=O)(=O)NC[C@H]6CCCNC6)c5)cc4C3)c2C1` the value was 50 to 250 nM. Under `Cc1nc2ncc(-c3ccc4c(c3)CN(c3nc(CNCCF)nc5c3CC(C)(C)CC5)CCO4)cc2[nH]1` stands 10 to 50 nM; under `CC1(C)CCc2ncnc(N3CCOc4ccc(-c5ccc(Cl)c(NS(C)(=O)=O)c5)cc4C3)c2C1`, 250 to 1000 nM; under `COc1c(Cl)cc2c(N3CCOc4ccc(-c5ccc6nc(C)[nH]c6c5)cc4C3)ncnc2c1OC`, 50 to 250 nM. The compound `CC(=O)OCc1nc(C)c(Cc2ccc(F)cc2)c(N2CCOc3ccc(-c4ccc5[nH]c(C)nc5c4)cc3C2)n1` returned an IC50 of 10 to 50 nM. For `Cc1c(NCCC2CCCN2C)ncnc1N1CCOc2ccc(-c3cnc4nc(C5CC5)[nH]c4c3)cc2C1` (configuration not stated) the value was 50 to 250 nM; for `Cc1ncnc(N2CCOc3ccc(-c4cnc(N)s4)cc3C2)c1Cc1ccc(F)cc1`, at most 10 nM.

Take `CNc1ncc(-c2ccc3c(c2)CN(c2ncnc4c2CC(C)(C)CC4)CCO3)cc1NS(C)(=O)=O`: the IC50 lay within 50 to 250 nM. For `COCCc1c(C)nc(CN(C)C)nc1N1CCOc2ccc(-c3cnc4sc(N)nc4c3)cc2C1` the value was 10 to 50 nM. As for `Cc1nc2ncc(-c3ccc4c(c3)CN(c3nc(CN)nc5c3CC(C)(C)CC5)CCO4)cc2[nH]1`, the IC50 is at most 10 nM. For `CC1(C)CCc2ncnc(N3CCOc4ccc(-c5cnc(N)c(S(=O)(=O)N6C[C@@H]7C[C@H]6CN7)c5)cc4C3)c2C1` the value was 10 to 50 nM; for `Cc1nc2ccc(-c3ccc4c(c3)CN(c3ncnc(C)c3Cc3cc(F)cc(Cl)c3)CCO4)cc2[nH]1`, 10 to 50 nM. With `CC1(C)CCc2ncnc(N3CCOc4ccc(-c5cnc(N)c(S(=O)(=O)NCC6CNC6)c5)cc4C3)c2C1`, the IC50 fell in the range of 10 to 50 nM. Compound `CC1(C)CCc2ncnc(N3CCOc4ccc(-c5cnc(N)c(S(=O)(=O)N6CCNCC6)c5)cc4C3)c2C1` registered an IC50 of 50 to 250 nM. For `CNCc1nc2c(c(N3CCOc4ccc(-c5cnc6nc(C)[nH]c6c5)cc4C3)n1)CC(C)(C)CC2` the value was at most 10 nM; for `Cc1nc2ccc(-c3ccc4c(c3)CN(c3ncnc5ccccc35)CCO4)cc2[nH]1`, 10 to 50 nM.

The compound `CC1(C)CCc2ncnc(N3CCOc4ccc(-c5cnc6[nH]ncc6c5)cc4C3)c2C1` yielded an IC50 of 10 to 50 nM.

Consider `Cc1ncnc(N2CCOc3ccc(-c4ccc5sc(N)nc5n4)cc3C2)c1Cc1ccc(F)cc1`, for which the IC50 was 10 to 50 nM. `Cc1nc2ncc(-c3ccc4c(c3)CN(c3nc(CN5CCCCC5)nc5c3CC(C)(C)CC5)CCO4)cc2[nH]1`: the IC50 was at most 10 nM. For `Cc1nc2cc(-c3ccc4c(c3)CN(c3nc([C@H]5CCCN5)nc5c3CC(C)(C)CC5)CCO4)cnc2[nH]1` the value was at most 10 nM. Under `CC(C)(O)CC[S+]([O-])c1cc(-c2ccc3c(c2)CN(c2ncnc4c2CC(C)(C)CC4)CCO3)cnc1N` (configuration not stated) stands 50 to 250 nM; under `Cc1nc2ccc(-c3ccc4c(c3)CN(c3ncnc5c3CC(C)C5)CCO4)cc2[nH]1` (configuration not stated), 50 to 250 nM; under `CC1(C)CCc2ncnc(N3CCOc4ccc(-c5cnc(N)c(S(=O)(=O)N6CC(O)C6)c5)cc4C3)c2C1`, at most 10 nM. Under `Cc1nc(CN(C)C)nc(N2CCOc3ccc(-c4ccc5[nH]c(CF)nc5c4)cc3C2)c1Cc1ccc(F)cc1` stands at most 10 nM; under `CC(N)CNS(=O)(=O)c1cc(-c2ccc3c(c2)CN(c2ncnc4c2CC(C)(C)CC4)CCO3)cnc1N` (configuration not stated), 50 to 250 nM. In the case of `CCc1nc(CN(C)C)nc(N2CCOc3ccc(-c4cnc5[nH]c(C)nc5c4)cc3C2)c1C`, the IC50 was in the range of 10 to 50 nM. In the case of `CCNc1nc2ccc(-c3ccc4c(c3)CN(c3ccnc5c(F)cccc35)CCO4)cc2[nH]1`, the IC50 is at most 10 nM. For `Cc1cc(Br)c2ncnc(N3CCOc4ccc(-c5ccc6nc(C)[nH]c6c5)cc4C3)c2c1` the value was 50 to 250 nM.

As to `CCOC(=O)Nc1nc2ncc(-c3ccc4c(c3)CN(c3ncnc5c3CC(C)(C)CC5)CCO4)cc2[nH]1`, the IC50 lay in the range of 50 to 250 nM. For `c1cc(N2CCOc3ccc(-c4ccc5nc[nH]c5c4)cc3C2)ncn1` the value was 250 to 1000 nM; for `Cc1nc2ncc(-c3ccc4c(c3)CN(c3nc(CNC(C)C)nc5c3CC(C)(C)CC5)CCO4)cc2[nH]1`, at most 10 nM.

`COC(=O)Nc1nc2ccc(-c3ccc4c(c3)CN(c3ncnc5c3CC(C)(C)CC5)CCO4)cc2[nH]1` came in with an IC50 of 10 to 50 nM.

For `COc1ccc2c(N3CCOc4ccc(-c5cnc(NC(C)=O)s5)cc4C3)nc(C)nc2c1`, the IC50 is 10 to 50 nM. For `Cc1nc2ncc(-c3ccc4c(c3)CN(c3nc(CN(C)C)nc5ccc(F)cc35)CCO4)cc2[nH]1` the value was 10 to 50 nM.

`CC[C@H]1CCc2c(nc(C)nc2N2CCOc3ccc(-c4cnc5nc(NC(=O)OC)[nH]c5c4)cc3C2)C1` gave an IC50 of at most 10 nM.

`CC1(C)CCc2ncnc(N3CCOc4ccc(-c5cnc(N)c(S(=O)(=O)CCCO)c5)cc4C3)c2C1` gave an IC50 of 10 to 50 nM.

The compound `COc1cc2c(N3CCOc4ccc(-c5ccc6nc(C)[nH]c6c5)cc4C3)ncnc2c(OC)c1OC` returned a half-inhibitory concentration (IC50) of 50 to 250 nM. For `Cc1nc2ccc(-c3ccc4c(c3)CN(c3nccc5ccccc35)CCO4)cc2[nH]1` the value was 50 to 250 nM; for `COCCOCc1nc2c(c(N3CCOc4ccc(-c5ccc6nc(C)[nH]c6c5)cc4C3)n1)CC(C)(C)CC2`, 50 to 250 nM. The compound `Cc1nc2ccc(-c3ccc4c(c3)CN(c3ncnc5cc(S(C)(=O)=O)ccc35)CCO4)cc2[nH]1` registered an IC50 of 50 to 250 nM.

`Cc1nc2cc(-c3ccc4c(c3)CN(c3nc([C@@H]5CCCN5)nc5c3CC(C)(C)CC5)CCO4)cnc2[nH]1` showed an IC50 of 10 to 50 nM. As for `Cc1nc2ncc(-c3ccc4c(c3)CN(c3nc(CNC(C)C5CC5)nc5c3CC(C)(C)CC5)CCO4)cc2[nH]1` (configuration not stated), the IC50 lay in the range of 10 to 50 nM.
